Laboratory results from patent US20260048003A1, “STABLE CYCLODEXTRIN FREE CARFILZOMIB FORMULATION” (AMGEN INC., priority 2020, published 2026).

Assays:
Type in all cases: physicochemical
[1] = Organic water miscible solvent screening to dissolve CFZ-API at high concentration; conditions: in NMP and DMSO
Experimental: Non-aqueous phase: (a) 200 mg/ml to 250 mg/ml of CFZ-API target concentration for the water miscible solvent screening; and (b) 20 to 50 mg/ml of CFZ-API target concentration for the co-solvent screening; and Aqueous phase: about 2 mg/ml target CFZ-API final concentration.
Since CFZ-API is extremely insoluble in water, various organic water miscible solvents were first screened to dissolve CFZ-API drug substance powder.

[2] = Aqueous phase solvents screening to dissolve CFZ-API to about 2 mg/ml (visual, RP-HPLC after filtration); conditions: aqueous solution around pH 3.0 to 3.5 (methane sulfonic acid) with 10,000 MW PVP
Source text: In Step 1 of the flow scheme preparation, non-aqueous solvents consisting of water miscible organic solvents and a co-solvent system were first added to dissolve the CFZ-API solid due its very low water solubility. […] The solution was then filtered by using 0.22 μm PES syringe filter equipped on a NORMJECT® (silicone free) syringe. The resulting filtrate was then checked for CFZ-API solubility recovery and stability on reverse phase high performance liquid chromatography (RP-HPLC). RP-HPLC was used to determine peak degradation as well as CFZ-API recovery through the use of a 3 to 5 point reference standard curve. Peak integration of standards was taken against standard buffer, 50% acetonitrile in water; while peak integration of formulation samples was taken against buffer of the formulation.

[3] = Visual observation of the cyclodextrin-free CFZ-API sample formulation (FIG. 1); conditions: CFZ-API 2 mg/ml in water in the presence of phosphate buffer solution (PBS)
Source text: FIG. 1 illustrates a visual comparison of carfilzomib active ingredient in (a) water, (b) cyclodextrin (CAPTISOL®) and cyclodextrin-free formulation of the present invention
Carfilzomib (CFZ) is a proteasomal inhibitor and active ingredient of KYPROLIS®, a lyophilized drug product which is for the treatment of multiple myeloma. The current commercial formulation of KYPROLIS contains CAPTISOL®, which is a cyclodextrin used to help solubility the CFZ-API. The present invention provides a stable, cyclodextrin-free formulations for CFZ-API in an aqueous solution which is suitable for injection. FIG. 1 illustrates (a) insoluble CFZ-API in water in the presence of phosphate buffer solution (PBS) (left vial); (b) current commercial KYPROLIS formulation containing CAPTISOL (middle vial); and (c) the cyclodextrin free formulation of the invention (right vial). Each sample contains CFZ-API concentration of 2 mg/ml.

[4] = Lyophilization and bulking agent screening
Experimental: 1 mL CFZ-API liquid formulation fill as prepared above in 3 mL Schott 1A glass vial was loaded into a VirTis Genesis 12 EL lyophilizer (TS Systems LyoStar™-3, SP Scientific, Warminster, PA). The lyophilization cycle used for screening bulking agents consisted of holding shelf temperature at 4° C. for 30 minutes then cooling the shelf to −45° C. at 0.2° C./min. The annealing step was then performed at from −45° C. to −12° C. at 0.3° C./min. The primary drying and secondary drying shelf temperatures were −25° C. and 25° C., respectively. The heating rate applied to the primary and secondary drying were 0.2° C./min and 0.1° C./min, respectively.
Table 5 describes the initial lyophilization study results of formulations containing bulking agents such as PVP 12,000 MW, mannitol, or glycine pre and post lyophilization. PVP was selected as a co-solubilizing agent candidate because of high solubility of CFZ-API in PVP pre and post lyophilization as discussed above. […]
Results from the lyophilization and bulking agent screening produced mostly poor lyophilized cakes, however two selected bulking agent provided cakes that looked better in overall drug product presentation. […] The CFZ-API recovery of 1.8 mg/ml was lower than the expected of 2 mg/ml possibly due to the other components of the powder absorbing the water, making it more dilute than theoretically measured.

For CC(C)C[C@H](NC(=O)[C@H](CCc1ccccc1)NC(=O)CN1CCOCC1)C(=O)N[C@@H](Cc1ccccc1)C(=O)N[C@@H](CC(C)C)C(=O)[C@@]1(C)CO1 [CFZ-API, Carfilzomib], the CFZ-API solubility [1] was “highly soluble”, the CFZ-API solubilized [2] was ≥ 90% and the “Visual observation (FIG. 1)” value [3] was “insoluble”. The “CFZ-API solubility trend with PVP concentration” value ([4]; PVP 10% to 40%) was “higher CFZ-API solubility” and the “CFZ-API solubility trend with PVP molecular weight” value ([4]; PVP 10,000, 12,000 and 17,000 MW) was “more soluble in lower MW PVP”.
